Results taken from patent US7138361B2, “Herbicidal heterocycles” (E. I. du Pont de Nemours and Company, priority 2000, dated 2006).

What was measured:
Assay in all cases: Test C preemergence
Type in all cases: in vivo
[1] = test system: Nightshade; details: scale 0 to 100, 0 no effect, 100 complete control
Description: (§1) Seeds of plant species selected from bermudagrass (Cynodon dactylon), Surinam grass (Brachiaria decumbens), cocklebur (Xanthium strumarium), corn (Zea mays), crabgrass (Digitaria sanguinalis), woolly cupgrass (Eriochloa villosa), giant foxtail (Setaria faberii), goosegrass (Eleusine indica), johnsongrass (Sorghum halepense), kochia (Kochia scoparia), lambsquarters (Chenopodium album), morningglory (Ipomoea hederacea), yellow nutsedge (Cyperus esculentus), pigweed (Amaranthus retroflexus), common ragweed (Ambrosia elatior), soybean (Glycine max) and velvetleaf (Abutilon theophrasti) were planted and treated preemergence with test chemicals formulated in a non-phytotoxic solvent mixture which included a surfactant.
(§2) At the same time, plants selected from these crop and weed species and also winter barley (Hordeum vulgare), blackgrass (Alopecurus myosuroides), canary grass (Phalaris minor), chickweed (Stellaria media), downy brome (Bromus tectorum), green foxtail (Setaria viridis), Italian ryegrass (Lolium multiflorum), wheat (Triticum aestivum), wild oat (Avena fatua) and windgrass (Apera spica-venti) were treated with postemergence applications of some of the test chemicals formulated in the same manner. Plants ranged in height from 2 to 18 cm (1- to 4-leaf stage) for postemergence treatments. Plant species in the flooded paddy test consisted of rice (Oryza saliva), smallflower flatsedge (Cyperus difformis), duck salad (Heteranthera limosa) and barnyardgrass (Echinochloa crus-galli) grown to the 2-leaf stage for testing. Treated plants and controls were maintained in a greenhouse for 12 to 14 days, after which time all species were compared to controls and visually evaluated. Plant response ratings, summarized in Table C, are based on a scale of 0 to 100 where 0 is no effect and 100 is complete control. A dash (-) response means no test result.

[2] = test system: Surinam grass (Brachiaria decumbens); details: for Plant response rating, Surinam grass: scale 0 to 100, 0 no effect, 100 complete control; for Plant response rating (0 to 100), Surinam grass: visual evaluation after 12 to 14 days
Description: as §1, §2

[3] = test system: bermudagrass (Cynodon dactylon); details: for Plant response rating, Bermudagrass: scale 0 to 100, 0 no effect, 100 complete control; for Plant response rating (0 to 100 where 0 is no effect and 100 is complete control), Bermudagrass: visual evaluation after 12 to 14 days
Description: as §1, §2

[4] = test system: cocklebur (Xanthium strumarium); details: for Plant response rating, Cocklebur: scale 0 to 100, 0 no effect, 100 complete control; for Plant response rating (0 to 100), Cocklebur: visual evaluation after 12 to 14 days
Description: as §1, §2

[5] = test system: common ragweed (Ambrosia elatior); details: preemergence; for Plant response rating, Ragweed, Common: scale 0 to 100, 0 no effect, 100 complete control
Description: as §1, §2

[6] = test system: corn (Zea mays); details: for Plant response rating, Corn: scale 0 to 100, 0 no effect, 100 complete control; for Plant response rating (0 to 100), Corn: visual evaluation after 12 to 14 days
Description: as §1, §2

[7] = test system: crabgrass (Digitaria sanguinalis); details: for Plant response rating, Crabgrass: scale 0 to 100, 0 no effect, 100 complete control; for Plant response rating (0 to 100), Crabgrass: visual evaluation after 12 to 14 days
Description: as §1, §2

[8] = test system: giant foxtail (Setaria faberii); details: for Plant response rating, Foxtail, Giant: scale 0 to 100, 0 no effect, 100 complete control; for Plant response rating (0 to 100), Foxtail, Giant: visual evaluation after 12 to 14 days
Description: as §1, §2

[9] = test system: goosegrass (Eleusine indica); details: for Plant response rating, Goosegrass: scale 0 to 100, 0 no effect, 100 complete control; for Plant response rating (0 to 100), Goosegrass: visual evaluation after 12 to 14 days
Description: as §1, §2

[10] = test system: johnsongrass (Sorghum halepense); details: for Plant response rating, Johnsongrass: scale 0 to 100, 0 no effect, 100 complete control; for Plant response rating (0 to 100), Johnsongrass: visual evaluation after 12 to 14 days
Description: as §1, §2

[11] = test system: kochia (Kochia scoparia); details: for Plant response rating, Kochia: scale 0 to 100, 0 no effect, 100 complete control; for Plant response rating (0 to 100), Kochia: visual evaluation after 12 to 14 days
Description: as §1, §2

[12] = test system: morningglory (Ipomoea hederacea); details: for Plant response rating, Morningglory: scale 0 to 100, 0 no effect, 100 complete control
Description: as §1, §2

[13] = test system: pigweed (Amaranthus retroflexus); details: preemergence; for Plant response rating, Pigweed: scale 0 to 100, 0 no effect, 100 complete control
Description: as §1, §2

[14] = test system: soybean (Glycine max); details: preemergence; for Plant response rating, Soybean: scale 0 to 100, 0 no effect, 100 complete control
Description: as §1, §2

[15] = test system: velvetleaf (Abutilon theophrasti); details: preemergence; for Plant response rating, Velvetleaf: scale 0 to 100, 0 no effect, 100 complete control
Description: as §1, §2

[16] = test system: woolly cupgrass (Eriochloa villosa); details: for Plant response rating, Cupgrass, Woolly: scale 0 to 100, 0 no effect, 100 complete control; for Plant response rating (0 to 100), Cupgrass, Woolly: visual evaluation after 12 to 14 days
Description: as §1, §2

[17] = test system: yellow nutsedge (Cyperus esculentus); details: for Plant response rating, Nutsedge: scale 0 to 100, 0 no effect, 100 complete control
Description: as §1, §2

[18] = test system: Sunflower; details: scale 0 to 100, 0 no effect, 100 complete control
[19] = Rate 500 g/ha, visual evaluation after 12 to 14 days
[20] = preemergence, Rate 500 g/ha, visual evaluation after 12 to 14 days

## CC1(c2ccn(C3SCN(c4cccc(C(F)(F)F)c4)C3=O)n2)CC1 (centres unmarked) [Compound 64]
[1]; Rate 62 g/ha
  Plant response rating, Nightshade: 30
[1]; Rate 125 g/ha
  Plant response rating, Nightshade: 70
[1]; Rate 250 g/ha
  Plant response rating, Nightshade: 90
[2]; Rate 62 g/ha
  Plant response rating, Surinam grass: 0
[2]; preemergence, Rate 250 g/ha
  Plant response rating (0 to 100), Surinam grass: 90
[2]; preemergence, Rate 500 g/ha
  Plant response rating (0 to 100), Surinam grass: 100
[2]; preemergence, Rate 125 g/ha
  Plant response rating, Surinam grass: 50
[3]; Rate 62 g/ha
  Plant response rating, Bermudagrass: 100
[3]; preemergence, Rate 250 g/ha
  Plant response rating (0 to 100 where 0 is no effect and 100 is complete control), Bermudagrass: 100
[3]; preemergence, Rate 500 g/ha
  Plant response rating (0 to 100 where 0 is no effect and 100 is complete control), Bermudagrass: 100
[3]; preemergence, Rate 125 g/ha
  Plant response rating, Bermudagrass: 100
[4]; Rate 62 g/ha
  Plant response rating, Cocklebur: 0
[4]; preemergence, Rate 250 g/ha
  Plant response rating (0 to 100), Cocklebur: 20
[4]; preemergence, Rate 500 g/ha
  Plant response rating (0 to 100), Cocklebur: 30
[4]; preemergence, Rate 125 g/ha
  Plant response rating, Cocklebur: 0
[5]; [19]
  Plant response rating (0 to 100), Ragweed, Common: 90
[5]; Rate 125 g/ha
  Plant response rating, Ragweed, Common: 50
[5]; Rate 250 g/ha
  Plant response rating, Ragweed, Common: 80
[6]; Rate 62 g/ha
  Plant response rating, Corn: 0
[6]; preemergence, Rate 250 g/ha
  Plant response rating (0 to 100), Corn: 30
[6]; preemergence, Rate 500 g/ha
  Plant response rating (0 to 100), Corn: 40
[6]; preemergence, Rate 125 g/ha
  Plant response rating, Corn: 0
[7]; Rate 62 g/ha
  Plant response rating, Crabgrass: 100
[7]; preemergence, Rate 250 g/ha
  Plant response rating (0 to 100), Crabgrass: 100
[7]; preemergence, Rate 500 g/ha
  Plant response rating (0 to 100), Crabgrass: 100
[7]; preemergence, Rate 125 g/ha
  Plant response rating, Crabgrass: 100
[8]; Rate 62 g/ha
  Plant response rating, Foxtail, Giant: 0
[8]; preemergence, Rate 250 g/ha
  Plant response rating (0 to 100), Foxtail, Giant: 100
[8]; preemergence, Rate 500 g/ha
  Plant response rating (0 to 100), Foxtail, Giant: 30
[8]; preemergence, Rate 125 g/ha
  Plant response rating, Foxtail, Giant: 50
[9]; Rate 62 g/ha
  Plant response rating, Goosegrass: 100
[9]; preemergence, Rate 250 g/ha
  Plant response rating (0 to 100), Goosegrass: 100
[9]; preemergence, Rate 500 g/ha
  Plant response rating (0 to 100), Goosegrass: 100
[9]; preemergence, Rate 125 g/ha
  Plant response rating, Goosegrass: 100
[10]; Rate 62 g/ha
  Plant response rating, Johnsongrass: 30
[10]; preemergence, Rate 250 g/ha
  Plant response rating (0 to 100), Johnsongrass: 90
[10]; preemergence, Rate 500 g/ha
  Plant response rating (0 to 100), Johnsongrass: 100
[10]; preemergence, Rate 125 g/ha
  Plant response rating, Johnsongrass: 70
[11]; Rate 62 g/ha
  Plant response rating, Kochia: 90
[11]; preemergence, Rate 250 g/ha
  Plant response rating (0 to 100), Kochia: 100
[11]; preemergence, Rate 500 g/ha
  Plant response rating (0 to 100), Kochia: 100
[11]; preemergence, Rate 125 g/ha
  Plant response rating, Kochia: 100
[12]; Rate 62 g/ha
  Plant response rating, Morningglory: 40
[12]; [20]
  Plant response rating (0 to 100), Morningglory: 60
[12]; preemergence, Rate 125 g/ha
  Plant response rating, Morningglory: 40
[12]; preemergence, Rate 250 g/ha
  Plant response rating, Morningglory: 40
[13]; [19]
  Plant response rating (0 to 100), Pigweed: 100
[13]; Rate 125 g/ha
  Plant response rating, Pigweed: 100
[13]; Rate 250 g/ha
  Plant response rating, Pigweed: 100
[14]; [19]
  Plant response rating (0 to 100), Soybean: 30
[14]; Rate 125 g/ha
  Plant response rating, Soybean: 20
[14]; Rate 250 g/ha
  Plant response rating, Soybean: 20
[15]; [19]
  Plant response rating (0 to 100), Velvetleaf: 50
[15]; Rate 125 g/ha
  Plant response rating, Velvetleaf: 0
[15]; Rate 250 g/ha
  Plant response rating, Velvetleaf: 20
[16]; Rate 62 g/ha
  Plant response rating, Cupgrass, Woolly: 30
[16]; preemergence, Rate 250 g/ha
  Plant response rating (0 to 100), Cupgrass, Woolly: 90
[16]; preemergence, Rate 500 g/ha
  Plant response rating (0 to 100), Cupgrass, Woolly: 100
[16]; preemergence, Rate 125 g/ha
  Plant response rating, Cupgrass, Woolly: 50
[17]; Rate 62 g/ha
  Plant response rating, Nutsedge: 0
[17]; [20]
  Plant response rating (0 to 100), Nutsedge: 50
[17]; preemergence, Rate 125 g/ha
  Plant response rating, Nutsedge: 0
[17]; preemergence, Rate 250 g/ha
  Plant response rating, Nutsedge: 50
[18]; Rate 125 g/ha
  Plant response rating, Sunflower: 20
[18]; Rate 250 g/ha
  Plant response rating, Sunflower: 50
